Reference: PubChem BioAssay AID248 (DTP/NCI, 2004)
“And” between values parts separate entries of the source, which are not always exact repeats. Equal entries are not always repeated. Toxic doses and inconclusive results are not listed. Rule as the data show it: active = T/C of 150% or more; inactive = T/C below 125%.

Test system: L1210 leukemia ip in BDF1 mice, survival T/C
Experiment: NCI In Vivo Anticancer Drug Screen. Data for tumor model L1210 Leukemia (intraperitoneal) in B6D2F1 (BDF1) mice
Conditions: endpoint: mean survival time, higher = longer survival
How it was run: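 In this screen, tumor-bearing mice given compound are compared to those given vehicle, and their survival values are reported as a treated-to-control quotient.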

[1] = dose: 100.0 mg/kg/injection, schedule: Q01DX009 (ip), vehicle: saline
[2] = dose: 100.0 mg/kg/injection, schedule: Q04DX003 (ip), vehicle: saline
[3] = dose: 100.0 mg/kg/injection, schedule: Q01DX001 (ip), vehicle: saline
[4] = dose: 200.0 mg/kg/injection, schedule: Q01DX001 (ip), vehicle: saline
[5] = dose: 200.0 mg/kg/injection, schedule: Q04DX003 (ip), vehicle: saline
[6] = dose: 400.0 mg/kg/injection, schedule: Q04DX003 (ip), vehicle: saline

Measured: T/C

CN(C)CCCN1c2ccccc2Sc2ccc(Cl)cc21
inactive: dose: 0.77 mg/kg/injection, schedule: Q03HX024 (ip), vehicle: saline 104 % of control | dose: 0.78 mg/kg/injection, schedule: Q04DX024 (oral), vehicle: saline 98 % of control | dose: 1.55 mg/kg/injection, schedule: Q03HX024 (ip), vehicle: saline 109 % of control | dose: 1.56 mg/kg/injection, schedule: Q04DX003 (ip), vehicle: saline 101 % of control | dose: 1.56 mg/kg/injection, schedule: Q04DX024 (oral), vehicle: saline 90 % of control | dose: 2.0 mg/kg/injection, schedule: Q01DX009 (ip), vehicle: saline 95 % of control and 113 % of control | dose: 2.5 mg/kg/injection, schedule: Q01DX015 (ip), vehicle: saline 103 % of control | dose: 3.1 mg/kg/injection, schedule: Q03HX024 (ip), vehicle: saline 102 % of control | dose: 3.12 mg/kg/injection, schedule: Q01DX009 (ip), vehicle: saline 111 % of control | dose: 3.12 mg/kg/injection, schedule: Q04DX003 (ip), vehicle: saline 101 % of control | dose: 3.12 mg/kg/injection, schedule: Q04DX024 (oral), vehicle: saline 104 % of control | dose: 4.0 mg/kg/injection, schedule: Q01DX009 (ip), vehicle: saline 93 % of control and 106 % of control | dose: 5.0 mg/kg/injection, schedule: Q01DX015 (ip), vehicle: saline 105 % of control | dose: 6.2 mg/kg/injection, schedule: Q03HX024 (ip), vehicle: saline 109 % of control | dose: 6.25 mg/kg/injection, schedule: Q04DX003 (ip), vehicle: saline 102 % of control and 103 % of control | dose: 8.0 mg/kg/injection, schedule: Q01DX009 (ip), vehicle: saline 106 % of control and 120 % of control | dose: 8.0 mg/kg/injection, schedule: Q01DX015 (ip), vehicle: saline 104 % of control | dose: 10.0 mg/kg/injection, schedule: Q01DX009 (ip), vehicle: saline 111 % of control | dose: 10.0 mg/kg/injection, schedule: Q01DX015 (ip), vehicle: saline 105 % of control | dose: 12.0 mg/kg/injection, schedule: Q01DX015 (ip), vehicle: saline 115 % of control | dose: 12.4 mg/kg/injection, schedule: Q03HX024 (ip), vehicle: saline 116 % of control | dose: 12.5 mg/kg/injection, schedule: Q01DX001 (ip), vehicle: saline 94 % of control | dose: 12.5 mg/kg/injection, schedule: Q01DX009 (ip), vehicle: saline 110 % of control and 102 % of control | dose: 12.5 mg/kg/injection, schedule: Q04DX003 (ip), vehicle: saline 109 % of control [middle of 4 runs] | dose: 16.0 mg/kg/injection, schedule: Q01DX009 (ip), vehicle: saline 87 % of control | dose: 18.0 mg/kg/injection, schedule: Q01DX015 (ip), vehicle: saline 121 % of control | dose: 18.75 mg/kg/injection, schedule: Q01DX001 (ip), vehicle: saline 113 % of control and 123 % of control | dose: 18.75 mg/kg/injection, schedule: Q01DX009 (ip), vehicle: saline 101 % of control | dose: 20.0 mg/kg/injection, schedule: Q01DX009 (ip), vehicle: saline 108 % of control | dose: 20.0 mg/kg/injection, schedule: Q01DX Z (ip), vehicle: methylcellulose (MC) 108 % of control | dose: 20.0 mg/kg/injection, schedule: Q04DX003 (ip), vehicle: saline 115 % of control | dose: 25.0 mg/kg/injection, schedule: Q01DX001 (ip), vehicle: saline 101 % of control | dose: 25.0 mg/kg/injection, schedule: Q01DX009 (ip), vehicle: saline 105 % of control | dose: 25.0 mg/kg/injection, schedule: Q04DX003 (ip), vehicle: saline 109 % of control [middle of 4 runs] | dose: 26.0 mg/kg/injection, schedule: Q04DX003 (ip), vehicle: saline 121 % of control | dose: 27.0 mg/kg/injection, schedule: Q01DX015 (ip), vehicle: saline 106 % of control | dose: 30.0 mg/kg/injection, schedule: Q01DX Z (ip), vehicle: methylcellulose (MC) 117 % of control | dose: 37.5 mg/kg/injection, schedule: Q01DX001 (ip), vehicle: saline 120 % of control | dose: 37.5 mg/kg/injection, schedule: Q01DX009 (ip), vehicle: saline 120 % of control | dose: 40.0 mg/kg/injection, schedule: Q01DX015 (ip), vehicle: saline 112 % of control | dose: 40.0 mg/kg/injection, schedule: Q04DX003 (ip), vehicle: saline 106 % of control | dose: 45.0 mg/kg/injection, schedule: Q01DX Z (ip), vehicle: methylcellulose (MC) 100 % of control | dose: 50.0 mg/kg/injection, schedule: Q01DX001 (ip), vehicle: saline 108 % of control | dose: 50.0 mg/kg/injection, schedule: Q01DX009 (ip), vehicle: saline 121 % of control | dose: 50.0 mg/kg/injection, schedule: Q04DX003 (ip), vehicle: saline 101 % of control and 113 % of control | dose: 60.0 mg/kg/injection, schedule: Q01DX015 (ip), vehicle: saline 117 % of control | dose: 67.5 mg/kg/injection, schedule: Q01DX Z (ip), vehicle: methylcellulose (MC) 99 % of control | dose: 75.0 mg/kg/injection, schedule: Q04DX003 (ip), vehicle: saline 116 % of control | dose: 90.0 mg/kg/injection, schedule: Q01DX015 (ip), vehicle: saline 104 % of control | [1] 89 % of control | [2] 99 % of control

CCCCCCCCCCCCNC(=O)Nc1ccc(Cl)c(Cl)c1
inactive: [3] 92 % of control | [4] 93 % of control

Oc1ccc(C(c2ccc(O)cc2)(C(F)(F)F)C(F)(F)F)cc1
inactive: dose: 100.0 mg/kg/injection, schedule: Q01DX009 (ip), vehicle: saline with Tween-80 105 % of control | dose: 100.0 mg/kg/injection, schedule: Q04DX003 (ip), vehicle: alcohol 101 % of control | dose: 200.0 mg/kg/injection, schedule: Q01DX009 (ip), vehicle: saline with Tween-80 97 % of control | dose: 200.0 mg/kg/injection, schedule: Q04DX003 (ip), vehicle: alcohol 95 % of control | dose: 400.0 mg/kg/injection, schedule: Q01DX009 (ip), vehicle: saline with Tween-80 109 % of control | dose: 400.0 mg/kg/injection, schedule: Q04DX003 (ip), vehicle: alcohol 102 % of control

CC1CCC(O)C1O (stereo unspecified)
inactive: [1] 105 % of control | [2] 94 % of control | dose: 200.0 mg/kg/injection, schedule: Q01DX009 (ip), vehicle: saline 105 % of control | [5] 97 % of control | dose: 400.0 mg/kg/injection, schedule: Q01DX009 (ip), vehicle: saline 102 % of control | [6] 97 % of control

O=C(NCN1CCOCC1)Nc1ccc(Cl)cc1
inactive: dose: 25.0 mg/kg/injection, schedule: Q01DX009 (ip), vehicle: gum acacia 100 % of control | dose: 50.0 mg/kg/injection, schedule: Q01DX009 (ip), vehicle: gum acacia 91 % of control

NC(CCSC(c1ccccc1)c1ccccc1)C(=O)O (stereo unspecified)
inactive: [3] 101 % of control | [4] 97 % of control | dose: 400.0 mg/kg/injection, schedule: Q01DX001 (ip), vehicle: saline 97 % of control

CN(Cc1ccc(Cl)cc1)C(=S)Nc1ccccc1
inactive: dose: 100.0 mg/kg/injection, schedule: Q04DX002 (ip), vehicle: Klucel (hydroxypropylcellulose) (HPC) 114 % of control | dose: 200.0 mg/kg/injection, schedule: Q04DX002 (ip), vehicle: Klucel (hydroxypropylcellulose) (HPC) 92 % of control | dose: 400.0 mg/kg/injection, schedule: Q04DX002 (ip), vehicle: Klucel (hydroxypropylcellulose) (HPC) 96 % of control

CCCCCCCCCCCCOc1ccc(C(=O)CC(=O)OCC)cc1
inactive: dose: 100.0 mg/kg/injection, schedule: Q01DX001 (ip), vehicle: acetone 95 % of control | dose: 200.0 mg/kg/injection, schedule: Q01DX001 (ip), vehicle: acetone 100 % of control | [5] 90 % of control | dose: 400.0 mg/kg/injection, schedule: Q01DX001 (ip), vehicle: acetone 108 % of control | [6] 89 % of control

C/C(=N\NC(N)=O)C(F)(F)F
inactive: dose: 15.0 mg/kg/injection, schedule: Q01DX Z (ip), vehicle: carboxymethylcellulose (CMC) 110 % of control | dose: 30.0 mg/kg/injection, schedule: Q01DX Z (ip), vehicle: carboxymethylcellulose (CMC) 93 % of control | dose: 60.0 mg/kg/injection, schedule: Q01DX Z (ip), vehicle: carboxymethylcellulose (CMC) 100 % of control and 103 % of control | dose: 120.0 mg/kg/injection, schedule: Q01DX Z (ip), vehicle: carboxymethylcellulose (CMC) 103 % of control and 109 % of control | dose: 120.0 mg/kg/injection, schedule: Q01DX Z (oral), vehicle: carboxymethylcellulose (CMC) 109 % of control | dose: 240.0 mg/kg/injection, schedule: Q01DX Z (ip), vehicle: carboxymethylcellulose (CMC) 112 % of control | dose: 240.0 mg/kg/injection, schedule: Q01DX Z (oral), vehicle: carboxymethylcellulose (CMC) 101 % of control | dose: 480.0 mg/kg/injection, schedule: Q01DX Z (oral), vehicle: carboxymethylcellulose (CMC) 90 % of control
